Assay results reported in US7026348B2, “Indole sPLA2 inhibitors” (Eli Lilly and Company, priority 1998, dated 2006).
Structures can show the parent of a compound that is named as a salt.

Each compound was assayed against T1, recombinant human secreted phospholipase A2 (Homo sapiens, UniProt P14555) (assay: chromogenic assay of recombinant human secreted phospholipase A2 inhibition). Conditions: diheptanoyl thio-PC substrate, pH 7.5, 40° C. for 30 minutes, absorbance at 405 nanometers, triplicate; read-out: Inhibition of human secreted PLA2 IC50 ± mean deviation.
T1 sequence (P14555 21-144): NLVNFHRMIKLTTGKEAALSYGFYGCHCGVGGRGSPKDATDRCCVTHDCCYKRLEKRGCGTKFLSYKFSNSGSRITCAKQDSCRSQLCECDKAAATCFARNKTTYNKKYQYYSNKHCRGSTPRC
Format: biochemical
Description: The following chromogenic assay procedure was used to identify and evaluate inhibitors of recombinant human secreted phospholipase A2. The assay described herein has been adapted for high volume screening using 96 well microtiter plates. A general description of this assay method is found in the article, “Analysis of Human Synovial Fluid Phospholipase A2 on Short Chain Phosphatidylcholine-Mixed Micelles: Development of a Spectrophotometric Assay Suitable for a Microtiterplate Reader”, by Laure J. Reynolds, Lori L. Hughes, and Edward A Dennis, Analytical Biochemistry, 204, pp. 190-197, 1992 (the disclosure of which is incorporated herein by reference):
REACTION BUFFER— • CaCl2.2H2O (1.47 g/L) • KCl (7.455 g/L) • Bovine Serum Albumin (fatty acid free)(1 g/L) • (Sigma A-7030, product of Sigma Chemical Co., St. Louis Mo., USA) • TRIS HCl (3.94 g/L) • pH 7.5 (adjust with NaOH)
ENZYME BUFFER— • 0.05 NaOAc.3H2O, pH 4.5 • 0.2 NaCl • Adjust pH to 4.5 with acetic acid
DTNB—5,5′-dithiobis-2-nitrobenzoic acid
RACEMIC DIHEPTANOYL THIO—PC
racemic 1,2-bis(heptanoylthio)-1,2-dideoxy-sn-glycero-3-phosphorylcholine
TRITON X-100™ prepare at 6.249 mg/ml in reaction buffer to equal […].
A measured volume of racemic dipheptanoyl thio PC supplied in chloroform at a concentration of 100 mg/ml is taken to dryness and redissolved in 10 millimolar
TRITON X-100™ nonionic detergent aqueous solution. Reaction Buffer is added to the solution, then DTNB to give the Reaction Mixture.
The reaction mixture thus obtained contains 1 mM diheptanoly thio-PC substrate, 0.29 mm Triton X-100™ detergent, and 0.12 mm DTMB in a buffered aqueous solution at pH 7.5.
• 1. Add 0.2 ml reaction mixture to all wells; • 2. Add 10 ul test compound (or solvent blank) to appropriate wells, mix 20 seconds; • 3. Add 50 nanograms of sPLA2 (10 microliters) to appropriate wells; • 4. Incubate plate at 40° C. for 30 minutes; • 5. Read absorbance of wells at 405 nanometers with an automatic plate reader.
All compounds were tested in triplicate. Typically, compounds were tested at a final concentration of 5 ug/ml. […] Lack of color development at 405 nanometers evidenced inhibition. Compounds initially found to be active were reassayed to confirm their activity and, if sufficiently active, IC50 values were determined. […] In all cases, % inhibition measured at 405 nanometers generated by enzyme reactions containing inhibitors relative to the uninhibited control reactions was determined. Each sample was titrated in triplicate and result values were averaged for plotting and calculation of IC50 values. IC50 were determined by plotting log concentration versus inhibition values in the range from 10-90% inhibition.

Row | Compound | IC50
1 | CCc1c(C(=O)C(N)=O)c2c(OCC(=O)NS(C)(=O)=O)cccc2n1Cc1ccccc1 [Example 1, 1-benzyl-2-ethyl-4-methanesulfonamidoylmethyloxy-indole-3-glyoxylamide] | 12 nM
2 | CCc1c(C(=O)C(N)=O)c2c(OCC(=O)NS(=O)(=O)c3ccccc3C)cccc2n1Cc1ccccc1 [Example 4, 1-benzyl-2-ethyl-4-(2-methylbenzenesulfonamidoylmethyloxy)-indole-3-glyoxylamide] | 9 nM
3 | CCc1c(C(=O)C(N)=O)c2c(OCC(=O)NS(=O)(=O)c3ccccc3)cccc2n1Cc1ccccc1 [Example 2, 1-benzyl-2-ethyl-4-benzenesulfonamidoylmethyloxy-indole-3-glyoxylamide] | 7 nM
4 | CCc1c(C(=O)C(N)=O)c2c(OCC(=O)NS(=O)(=O)c3ccc(CCN)cc3)cccc2n1Cc1ccccc1 [Example 5, 1-benzyl-2-ethyl-4-(4-(2-aminoethyl)benzenesulfonamidoylmethyloxy)-indole-3-glyoxylamide, Hydrochloride Salt] | 16 nM
5 | CCc1c(C(=O)C(N)=O)c2c(OCC(=O)NS(=O)(=O)C(F)(F)F)cccc2n1Cc1ccccc1 [Example 3, 1-benzyl-2-ethyl-4-trifluoromethanesulfonamidoylmethyloxy-indole-3-glyoxylamide] | 17 nM
